This test addresses T1, human sGCa1 and mutant sGCβ1H105F (apo-sGC) in Sf9 cells (Homo sapiens, UniProt Q02153, H105F).
T1 construct: His tag; expressed in transfected cells; host or cells: Sf9 cells co-infected with baculoviruses
T1 sequence (Q02153 1-619 H105F): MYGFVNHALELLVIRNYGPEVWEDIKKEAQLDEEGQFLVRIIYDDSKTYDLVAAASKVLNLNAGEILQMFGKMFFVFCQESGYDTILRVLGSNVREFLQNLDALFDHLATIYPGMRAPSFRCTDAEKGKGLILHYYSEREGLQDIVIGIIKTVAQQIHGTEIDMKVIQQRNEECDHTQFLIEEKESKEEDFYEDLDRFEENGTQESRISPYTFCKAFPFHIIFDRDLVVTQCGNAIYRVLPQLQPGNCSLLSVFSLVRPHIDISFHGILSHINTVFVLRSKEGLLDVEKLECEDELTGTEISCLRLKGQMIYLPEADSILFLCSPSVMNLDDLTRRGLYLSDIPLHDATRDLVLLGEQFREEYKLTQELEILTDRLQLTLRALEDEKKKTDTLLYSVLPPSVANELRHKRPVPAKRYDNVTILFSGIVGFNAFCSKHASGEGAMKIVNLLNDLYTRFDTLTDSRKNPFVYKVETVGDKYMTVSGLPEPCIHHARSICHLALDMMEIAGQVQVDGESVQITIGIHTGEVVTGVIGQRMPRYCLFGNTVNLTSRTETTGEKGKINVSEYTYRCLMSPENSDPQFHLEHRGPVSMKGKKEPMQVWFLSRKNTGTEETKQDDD
T1 sequence (Q02108 1-690 partner): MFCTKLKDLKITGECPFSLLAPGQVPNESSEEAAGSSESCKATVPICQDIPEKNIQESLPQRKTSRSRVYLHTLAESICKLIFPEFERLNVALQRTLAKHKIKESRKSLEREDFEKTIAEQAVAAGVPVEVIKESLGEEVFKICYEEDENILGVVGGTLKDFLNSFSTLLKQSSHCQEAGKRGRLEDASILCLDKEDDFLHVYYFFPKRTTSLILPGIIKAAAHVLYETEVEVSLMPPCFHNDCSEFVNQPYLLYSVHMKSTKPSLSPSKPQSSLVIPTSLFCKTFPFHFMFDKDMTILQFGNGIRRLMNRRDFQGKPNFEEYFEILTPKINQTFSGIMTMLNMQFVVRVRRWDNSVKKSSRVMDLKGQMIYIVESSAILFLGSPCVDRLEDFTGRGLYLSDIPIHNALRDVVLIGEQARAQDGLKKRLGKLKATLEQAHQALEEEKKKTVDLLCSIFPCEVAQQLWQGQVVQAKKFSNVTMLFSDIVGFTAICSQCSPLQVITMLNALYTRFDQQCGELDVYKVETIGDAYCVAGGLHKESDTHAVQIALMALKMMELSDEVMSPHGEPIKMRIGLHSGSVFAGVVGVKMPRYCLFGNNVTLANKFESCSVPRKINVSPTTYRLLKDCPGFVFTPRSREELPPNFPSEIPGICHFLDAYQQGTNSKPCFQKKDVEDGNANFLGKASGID
In words: cGMP accumulation in intact Sf9 cells expressing apo-sGC. Format: cell-based. The note with it: for cGMP formation, sGC stimulator combined with NO donor: 30 micromole/L Bay 41-2272 + 10 micromole/L DETA-NONOate (FIG. 12A, B); for cGMP formation, sGC stimulator only: 30 micromole/L Bay 41-2272 alone (FIG. 12A). As for the experimental part: Sf9 cells were co-infected with baculoviruses expressing human sGCa1 and mutant sGCβ1H105F. Forty-eight hours post-infection, the cells were treated with vehicle, NO donor, sGC stimulator, sGC activator or combination in 2 ml final volume of 10^6 cells per ml then the cells were incubated for 10 min at 27° C. The reaction was terminated by the addition of 0.1M of HCl, and cGMP was extracted on ice for 20 min. Cells were then sonicated to ensure complete lysis. The extract was then centrifuged and used for cGMP determination by an ELISA (Enzo Life Sciences).
Forty-eight hours post-infection, the cells were treated with vehicle, NO donor, sGC stimulator, sGC activator or combination in 2 ml final volume of 10^6 cells per ml and subsequently, the cells were incubated for 10 minutes at 27° C. The reaction was terminated by the addition of 0.1M of HCl, and cGMP was extracted on ice for 20 minutes. Cells were then sonicated to ensure complete lysis. The obtained cell extract was then centrifuged and used for cGMP determination by an ELISA. […] In the absence of any of the NO donor, the sGCs or the combination of these compounds, no cGMP synthesis is detected. It is now for the first time shown by the inventors that apo-sGC is still activatable even in the absence of an sGC activator known in the art. The presence of the sGCs facilitates NO binding to a secondary, heme-independent NO binding-site, and in addition, presence of an NO donor acts synergistically, when cGMP production is considered. Due to the invention, it is now made possible to treat patients with an sGCs, resulting in cGMP formation, under conditions wherein treatment with sGC activators has no effect at all or a too small effect, e.g. under conditions of ischemia, neonatal asphyxia, stroke, hypoxia, acute respiratory distress syndrome, asthma, oxidative (organ and/or tissue and/or cell) damage, etc. The invention provides a new treatment modality for these patients, which are often not sensitive (enough) for sGCa treatment. […] C.

Each structure is given as a SMILES string. “Also recorded” adds a separate entry of the source.

As to `Nc1nc(-c2nn(Cc3ccccc3F)c3ncccc23)ncc1C1CC1` [BAY 41-2272, 5-cyclopropyl-2-[1-(2-fluoro-benzyl)-1H-pyrazolo[3,4-b]pyridin-3-yl]-pyrimidin-4-ylamine], under “listed as Bay 41-2272”, the “cGMP formation, sGC stimulator combined with NO donor” value was “synergistic increase in cGMP formation” and the “cGMP formation, sGC stimulator only” value is given as “increase in cGMP formation”. In addition, where the note is “listed as Bay41-2272”, the “cGMP formation, sGC stimulator combined with NO donor” value is listed as “more than double amount of cGMP; also recorded: synergistic increase in cGMP formation” and the “cGMP formation, sGC stimulator only” value is listed as “resulted in cGMP production; also recorded: increase in cGMP formation”.

Values taken from patent publication US20230087609A1, “USE OF A SOLUBLE GUANYLATE CYCLASE (sGC) STIMULATOR OR OF A COMBINATION OF A sGC STIMULATOR AND AN sGC ACTIVATOR FOR CONDITIONS WHEREIN THE HEME GROUP OF sGC IS OXIDIZED OR WHEREIN sGC IS DEFICIENT IN HEME” (Universiteit Maastricht, priority 2020, published 2023).
